Activity calls are given as the source filed them.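 The calls were made as follows: active = fitted curve reaches a 40% rise in fluorescent cells at or below the top valid dose; inactive = opposite-direction effect, or the rest.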

The first test is described as follows: compound fluorescence in GFP channel, mTEFS cells – imaging, mTEFS fibroblasts, cherry-pick, artefact control for X-chromosome reactivation project, dose response (AID 743396).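 Also: raw share of Hoechst-counted cells scored GFP positive without control normalization.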 The note with it: mTEFS fibroblasts autofluorescence, GFP-channel imaging, 3 days; at 19.5 µM (top of the series).
With `C[n+]1c(-c2ccccc2)c2cc(N)ccc2c2ccc(N)cc21`, the % fluorescent cells increase was 0.212% (inactive).

Still in this test, the particulars now being: mTEFS fibroblasts autofluorescence, GFP-channel imaging, 3 days; at 19.5 µM (top of the series); cells pretreated with 5-aza-dC.
`O=C(CNC(=O)c1ccccc1F)OCc1nc2ccccc2s1`: the % fluorescent cells increase was 0.037% (inactive). As to `Cc1ccc(Cn2ccsc2=NC(=O)CCl)cc1`, the % fluorescent cells increase was 0% (inactive).

As for `COc1ccc(-c2nn(-c3ccccc3)cc2C(=O)NC(=S)Nc2cc(Cl)ccc2Cl)cc1`, the % fluorescent cells increase is 2.13% (inactive). Same read-out and setting: next, `CN(Cc1cccs1)C(=O)Cc1c[nH]c2ccccc12`: 0.005% (inactive). The same measure, in the same setting: next, `Cc1nn2c(NCCCN(C)C)c3c(nc2c1-c1ccccc1)CCCC3`: -0.007% (inactive); `COc1ccc2nc(SCC(=O)Nc3ccccc3OC)[nH]c2c1`: 0.385% (inactive); `C[C@@H]1CN([C@@H](C)CO)C(=O)c2ccccc2-c2ccccc2CO[C@@H]1CN(C)C(=O)Nc1ccc2c(c1)OCO2`: -0.044% (inactive). With `CC(Sc1nnc(-c2ccncc2)n1C)C(=O)Nc1ccc(N2CCOCC2)cc1` (stereo unspecified), the % fluorescent cells increase is 0% (inactive).

With `CCN(CC)S(=O)(=O)c1ccc(Cl)c(NC(=O)COC(=O)c2c(C)noc2C)c1`, the % fluorescent cells increase was 0.009% (inactive). Still for that read-out and setting: for `COC(=O)c1cc(C(=O)N2CCN(c3ccccc3OC)CC2)cc([N+](=O)[O-])c1` the value was 0% (inactive); for `Cc1ccc(-c2nc(CS(=O)CC(=O)NCCCN3CC(C)CC(C)C3)c(C)o2)cc1` (stereo unspecified), 0.023% (inactive).

As to `C[C@@H]1C[C@H]2[C@@H]3CCC4=CC(=O)C=C[C@]4(C)[C@@]3(F)[C@@H](O)C[C@]2(C)[C@H]1C(=O)CO`, the % fluorescent cells increase was 0% (inactive).

With `Cc1[nH]c2ccc(Br)cc2c(=O)c1CN1CCCCCC1`, the % fluorescent cells increase was 0% (inactive). Turning to `COc1ccc2c3c([nH]c2c1)[C@H](CO)N(C(=O)C1CCCC1)CC31CN(Cc2nccs2)C1`, the % fluorescent cells increase was 0.113% (inactive).

In the case of `COC(=O)c1c(NC(=O)c2ccc(C)cc2)csc1C`, the % fluorescent cells increase is -0.006% (inactive).

For `Cc1nnc(-c2ccc(N3CCCCCC3)c([N+](=O)[O-])c2)o1`, the % fluorescent cells increase was 0% (inactive). Take `CC(=O)c1ccc2c(c1)OCCOCCOCCOCCOCCO2`: the % fluorescent cells increase is 0.551% (inactive). The same measure, in the same setting: for `CCCNNC(=O)C(O)(c1ccccc1)c1ccccc1` the value was 0.02% (inactive). On to `O=C(CSc1nc2ccccc2[nH]1)N/N=C/C=C/c1ccccc1[N+](=O)[O-]`, for which the % fluorescent cells increase was 0.094% (inactive). Same read-out and setting: for `Cn1c(=O)[nH]c(=O)c2c1nc1n2CCCN1Cc1ccccc1` the value was -0.011% (inactive); for `O=C(Nc1ccccc1)N1C[C@@H]2[C@H](c3ccccc31)[C@H](CO)N2C(=O)c1ccccc1F`, 0.041% (inactive); for `COc1ccccc1N=Nc1c(C)[nH]n(-c2ccccc2)c1=O`, 0% (inactive).

`O=C(NCCO)/C(=C/c1ccco1)NC(=O)c1ccco1`: the % fluorescent cells increase is 0.007% (inactive). Same read-out and setting: next, `O=C(O)c1ccc(COc2ccccc2C=C2C(=O)c3ccccc3C2=O)cc1`: -0.004% (inactive); `Cc1[nH]c2ccccc2c1/C=N/Nc1nc2ccccc2[nH]1`: 0% (inactive); `CCOC(=O)c1nn(-c2ccc3ccccc3c2)cc1O`: 0.04% (inactive). As for `O=C(N/N=C/c1ccc(Br)s1)c1ccc([N+](=O)[O-])cc1`, the % fluorescent cells increase is -0.007% (inactive). Still for that read-out and setting: next, `C[C@H]1CCCCO[C@@H](CN(C)C(=O)Nc2ccc(C(F)(F)F)cc2)[C@@H](C)CN([C@@H](C)CO)C(=O)c2cc(NC(=O)CCC(F)(F)F)ccc2O1`: -0.166% (inactive); `CCn1c(Cl)c(C=O)s/c1=N\S(=O)(=O)c1ccccc1`: 0% (inactive); `COc1cc(NC(C)CCc2ccccc2)cc(OC)c1OC` (stereo unspecified): 0% (inactive).

`Nc1nc(Nc2ccc(Cl)cc2)c(NC=O)c(=O)[nH]1`: the % fluorescent cells increase is 18.8% (inactive). For `Cn1cc(/C=C/c2cc[n+](C)cc2)c2cc(Cl)ccc21`, the % fluorescent cells increase was 6.85% (inactive).

With `COC(=O)c1ccc(NC(=O)c2nc(S(=O)(=O)Cc3cccc(C)c3)ncc2Cl)cc1`, the % fluorescent cells increase was -0.007% (inactive). The same measure, in the same setting: next, `CC(C)N1CCc2c(sc(NC(=O)c3cc4cc([N+](=O)[O-])ccc4s3)c2C(N)=O)C1`: 0% (inactive); `O=C(O)c1cccnc1C(=O)N1CCc2c([nH]c3ccccc23)C1C(F)(F)F` (stereo unspecified): 0.447% (inactive); `CO[C@H]1CN(C)C(=O)c2ccc(NC(=O)Cc3ccccc3)cc2OC[C@@H](C)N(C)C[C@H]1C`: 0% (inactive). Same read-out and setting: for `Cc1ccc2[nH]c(C(=O)O)c(NC(=O)[C@@H]3C[C@@H]3c3ccccc3)c2c1` the value was 0.266% (inactive). Same read-out and setting: next, `Cc1cccc(CS(=O)(=O)Cc2ccc(C(=O)NCc3cccs3)o2)c1`: 0.029% (inactive); `Cn1c(=O)c(C#N)c(-c2ccc(F)cc2)c2cc(C(=O)c3cc(Cl)cc(Cl)c3O)cnc21`: 0.617% (inactive); `O=C(NC1=NN(c2ccccc2)CC1)Nc1ccccc1F`: -0.002% (inactive). On to `C[C@@H]1ON(C)[C@H]2C[C@H]3c4cc(-c5cccc(F)c5)ccc4CCN3C(=O)[C@@H]12`, for which the % fluorescent cells increase was 0% (inactive). Still for that read-out and setting: for `C[C@H]1CCCCO[C@H](CN(C)S(=O)(=O)c2ccc(Cl)cc2)[C@@H](C)CN([C@@H](C)CO)C(=O)c2cc(NC(=O)Nc3ccccc3)ccc2O1` the value was 1.86% (inactive); for `COc1cccc(CNC(=O)c2ccc(NC(=O)CC3SC(N4CCCC4)=NC3=O)cc2)c1` (stereo unspecified), 0% (inactive); for `Cc1cccc(NC(=O)Cn2cnc3c(oc4nc5c(cc43)COC(C)(C)C5)c2=O)c1`, 2.35% (inactive). As for `C[C@@H]1CN([C@@H](C)CO)C(=O)c2cc(NS(C)(=O)=O)ccc2O[C@@H](C)CCCCO[C@@H]1CN(C)Cc1ccccc1`, the % fluorescent cells increase is 0.259% (inactive). Same read-out and setting: next, `CC(=O)N/C(N)=N/c1nc(=O)c2ccccc2s1`: 0.24% (inactive). In the case of `Cc1ccsc1/C=N/n1c(-c2cc(-c3ccccc3)n[nH]2)n[nH]c1=S`, the % fluorescent cells increase is 0% (inactive). On to `CC1CC(C)CN(C(=O)C(C)N2CCN(S(=O)(=O)c3ccccc3F)CC2)C1` (stereo unspecified), for which the % fluorescent cells increase was 0.338% (inactive). Regarding `CN(C)/C=C1\C=C2C(=O)c3ccccc3N2C1=O`, the % fluorescent cells increase is 0.092% (inactive). In the case of `Oc1cccc(/C=N/NC(=S)NCCN2CCOCC2)c1O`, the % fluorescent cells increase is 0% (inactive). Take `NNC(=O)/C(=C\c1ccc(Br)cc1)NC(=O)c1cccs1`: the % fluorescent cells increase is 0.233% (inactive).

On to `CC(OCCN(C)C)C(=O)C12CC3CC(CC(C3)C1)C2` (stereo unspecified), for which the % fluorescent cells increase was 0.039% (inactive). As to `NS(=O)(=O)c1cccc(-n2cnnn2)c1`, the % fluorescent cells increase is 0% (inactive). Still for that read-out and setting: next, `O=C(OCc1cc(=O)n2c(n1)sc1ccccc12)c1ccc(O)cc1O`: -0.007% (inactive); `Cc1ccc(OCCN2CCN(CC(O)Cn3c4ccccc4c4ccccc43)CC2)cc1` (stereo unspecified): 3.56% (inactive). The same measure, in the same setting: next, `OC[C@@H]1Nc2ccc(C#Cc3ccccc3)cc2[C@H]2[C@@H]1CCN2Cc1nccs1`: 0.018% (inactive). As for `COc1ccc(S(=O)(=O)Nc2ccc3c(c2)C(=O)N([C@@H](C)CO)C[C@H](C)[C@H](CN(C)C(=O)CCCN(C)C)OCCCC[C@H](C)O3)cc1`, the % fluorescent cells increase was 0.13% (inactive). Still for that read-out and setting: for `NS(=O)(=O)c1cccc(NC(=O)COC(=O)Cc2ccc(S(=O)(=O)N3CCOCC3)s2)c1` the value was 0% (inactive). On the same count and under the same terms, next, `Oc1ccc(Br)cc1C=Nc1ccc2c3c(cccc13)CC2`: 3.42% (inactive). As for `O=C(CCl)N=c1sccn1Cc1ccc(Cl)cc1Cl`, the % fluorescent cells increase was 0% (inactive). In the case of `COc1ccccc1/C=C/C(=O)OCC(=O)NC(=O)NC1CCCC1`, the % fluorescent cells increase is 0% (inactive). On the same count and under the same terms, for `Clc1ccc(-c2nc(-c3ccncc3)no2)c(Cl)c1` the value was 0% (inactive). For the compound `COc1ccc(N(CC(=O)Nc2nccs2)S(=O)(=O)c2c(C)[nH]c(=O)[nH]c2=O)cc1`, the % fluorescent cells increase was 0% (inactive). Same read-out and setting: next, `CC1=Nc2ccccc2/C1=C\c1sc(Nc2ccc(C)cc2)nc1O`: 0.199% (inactive). Still for that read-out and setting: next, `Nc1nnc(SCC(=O)c2ccc([N+](=O)[O-])cc2)s1`: -0.007% (inactive). On the same count and under the same terms, for `CNC(=O)C[C@H]1C(=O)N(c2ccccc2)C[C@@H]1C` the value was 0% (inactive); for `Nc1ccccc1Sc1ccc(C(F)(F)F)cc1[N+](=O)[O-]`, 0% (inactive); for `COc1cc(CNc2nc3ccccc3n2C)cc(OC)c1OC`, 0% (inactive). On to `CCOc1ccc(CCN2C(=S)N([C@@H](Cc3ccccc3)CN3CCC[C@@H]3CN3C(=S)NC[C@@H]3CC(C)C)C[C@@H]2Cc2ccccc2)cc1`, for which the % fluorescent cells increase was 0.019% (inactive).

In the case of `COCCNC(=O)CSc1nc2scc(-c3ccccc3)c2c(=O)[nH]1`, the % fluorescent cells increase was 0.106% (inactive). On the same count and under the same terms, for `O=C(N/N=C/c1ccc([N+](=O)[O-])o1)c1cc2ccccc2o1` the value was 1.73% (inactive); for `CCOC(=O)c1ccc(NC(=O)C2(N3C(=O)c4ccccc4C3=O)CCCC2)cc1`, 0.495% (inactive); for `CN(Cc1nc(CCc2ccccc2)no1)Cc1cccs1`, 0.295% (inactive). Take `O=c1c2ccccc2nnn1Cc1ccc2ccccc2c1`: the % fluorescent cells increase was 0.015% (inactive). On the same count and under the same terms, next, `CCCCn1nnnc1C(c1ccccc1)N1CCN(c2ccc(C)cc2)CC1` (stereo unspecified): -0.003% (inactive).

These data come from PubChem BioAssay AID743396 (Broad Institute, 2014).
